Measured values reported in patent US8048888B2, “Anti-proliferative combination therapy using certain platinum-based chemotherapeutic agents and EGFR inhibitors or pyrimidine analogues” (Agennix AG, priority 2005, dated 2011).
Read-outs that look alike come from different tables or passages of the source.

Columns and labels:
MCF7 cell line = assay: SRB assay, simultaneous JM118 and 5FU, 48 hours; assay type: cell-based; conditions: Homo sapiens, read-out: Growth inhibition
Description: For this experiment the human colorectal carcinoma cell line HCT 116 (ATCC order number: CCL-247; Cancer Res (1981) 41, 1751; J Natl Cancer Inst (1982) 69, 767) and the human adenocarcinoma cell line MCF7 (ATCC order number: HTB-22; Cancer Res (1983) 43, 2831; Science (1985) 230, 943) were used.
5FU was dissolved in 0.1% DMSO at a concentration of 20 mM.
Cells were incubated with both compounds simultaneously.

[1] = system: MX-1 tumor (human breast carcinoma); conditions: for Median tumor volume / T/C %: capecitabine 750 mg/kg/adm PO Q1Dx8
Description: Healthy female SWISS nu/nu mice, 6-7 weeks old, 17-22 g, were obtained from Charles River (L'Arbresle, France). Animals were acclimated for seven days in a specific-pathogen-free (SPF) animal care unit before treatment. MX-1 tumor implants were purchased and provided by Oncodesign (Dijon, France). MX-1 is a human breast carcinoma cell line.
To induce MX-1 tumors in nude mice ten female SWISS nude mice were subcutaneously implanted with thawed fragments of MX-1 tumor 24 hours after whole body irradiation with a γ-source (Co^60, INRA, Dijon, France). Mice were continuously monitored and terminated when tumors reached 700 to 1000 mm^3. Tumors were then surgically excised and homogenous fresh fragments were subcutaneously implanted in the right flanks of 130 SWISS nude mice.
Ninety (90) mice were randomized into 9 groups of 10 mice each.
Suspensions were continuously agitated during administration to mice.
The treatment schedule was as follows (all dosage indicated are dosages per administration): • Mice from group 1 received one daily PO (oral) administration of satraplatin vehicle (arachis oil, see above) for 5 consecutive days from D21 (day 21) to D25 (referred to as Q1D×5) in combination with one daily PO administration of capecitabine vehicle (Citrate buffer containing Arabic gum, see above) for 8 consecutive days from D21 to D28 (Q1D×8), • Mice from group 2 received one daily PO administration of capecitabine at 750 mg/kg (milligram per kilogram of body weight) for 8 consecutive days from D21 to D28 (Q1D×8), • Mice from group 3 received one daily PO administration of satraplatin at 5 mg/kg for 5 consecutive days from D21 to D25 (Q1D×5), • Mice from group 4 received one daily PO administration of satraplatin at 15 mg/kg for 5 consecutive days from D21 to D25 (Q1 D×5), • Mice from group 5 received one daily PO administration of satraplatin at 25 mg/kg for 5 consecutive days from D21 to D25 (Q1D×5), • Mice from group 6 received one daily PO administration of satraplatin at 45 mg/kg for 5 consecutive days from D21 to D25 (Q1D×5), • Mice from group 7 received one daily PO administration of satraplatin at 5 mg/kg for 5 consecutive days from D21 to 025 (Q1D×5) in combination with one daily PO administration of capecitabine at 750 mg/kg for 8 consecutive days from D21 to D28 (Q1D×8), • Mice from group 8 received one daily PO administration of satraplatin at 15 mg/kg for 5 consecutive days from D21 to D25 (Q1D×5) in combination with one daily PO administration of capecitabine at 750 mg/kg for 8 consecutive days from D21 to D28 (Q1D×8), • Mice from group 9 received one daily PO administration of satraplatin at 25 mg/kg for 5 consecutive days from D21 to D25 (Q1D×5) in combination with one daily PO administration of capecitabine at 750 mg/kg for 8 consecutive days from D21 to D28 (Q1D×8). Satraplatin was administered 30 minutes after capecitabine. Satraplatin and capecitabine were administered at a dose volume of 10 ml/kg body weight.
During the course of the experiment, viability and behaviour of mice were recorded every day. Mice body weight and tumor volume was recorded twice a week. Mice were terminated when tumor weight was equivalent to 10% of body weight or when a body weight loss of 20% was observed.
Tumor growth inhibition (T/C %) is defined as the ratio of the median tumor volume of a given treated group (test or reference substance) versus the equivalent median volume from the control group. T/C % is calculated as follows: […]
The optimal value is the minimal T/C % ratio that reflects the maximal tumor growth inhibition achieved.
Tumor Log cell kill was calculated using the following formula:
[formula] wherein DT is the doubling time of the tumor.

A129 cp80 cell line = assay: SRB cytotoxicity assay, 48 hours, cisplatin-resistant A129 cp80; assay type: cell-based
Description: (§1) The parental non-mutated cell line A129 was used as control.
(§2) Briefly, cells were plated in 96 well dishes 24 hours prior to compound addition. The assay was terminated with the addition of cold TCA to a final concentration of 10% and the plates were incubated for one hour at 4° C. The plates were then washed 5 times with water and 100 μl of a Sulforhodamine B solution ([…]) was added to each well. The plate was then incubated for 10 minutes at room temperature before removal of unbound dye by washing with 1% acetic acid. The bound dye was solubilized with 10 mM Trizma base and the absorbance read at OD570.
(§3) Numbers in brackets indicate how often experiments were performed. In each single experiment a minimum of three replica wells was used for each drug concentration and cell line. Shown are mean values and standard deviations of the IC50s, as determined in the individual experiments. RR denominates the relative resistance, i.e. the relative level of resistance conferred to the indicated drugs.

A129 = assay: SRB cytotoxicity assay, 48 hours, parental cell line A129; assay type: cell-based; conditions: A129, 48 hours
Description: as §1, §2, §3

UM-UC-3 cell line [2] = assay: SRB assay, sequential: JM-118 48 hours, followed by gemcitabine 48 hours; assay type: cell-based; conditions: Homo sapiens, UMUC3, JM118 first, read-out: Growth inhibition
Description: (§4) Gemcitabine was dissolved in saline at a concentration of 10 mM. Cells were seeded at 1,500 cells per well.
Cells were incubated with both compounds sequentially, wherein cells were incubated with JM118 first.

UM-UC-3 cell line [3] = assay: SRB assay, sequential: gemcitabine 48 hours, followed by JM118 48 hours; assay type: cell-based; conditions: Homo sapiens, UMUC3, Gemcitabine first, read-out: Growth inhibition
Description: as §4
Cells were incubated with both compounds sequentially, wherein cells were incubated with gemcitabine first.

For `O=c1[nH]cc(F)c(=O)[nH]1` [5FU, 5-fluorouracil], the inhibition at 0.3125 µM (MCF7 cell line; JM118 0 + 5FU 0.3125 μM) was 1.1%, the inhibition at 0.625 µM (MCF7 cell line; JM118 0 + 5FU 0.625 μM) was 2.9% and the inhibition at 1.25 µM (MCF7 cell line; JM118 0 + 5FU 1.25 μM) was 7.2%. The inhibition at 2.5 µM (MCF7 cell line; JM118 0 + 5FU 2.5 μM) was 17.3%, the inhibition at 5 µM (MCF7 cell line; JM118 0 + 5FU 5 μM) was 37.4% and the inhibition at 10 µM (MCF7 cell line; JM118 0 + 5FU 10 μM) was 67.7%.
In the case of `CCCCCOC(=O)Nc1nc(=O)n([C@@H]2O[C@H](C)[C@@H](O)[C@H]2O)cc1F` [Capecitabine], the “tumor log cell kill” value ([1]; capecitabine 750 mg/kg alone) is reported as 0.2, the Median tumor volume ([1]; D21) is reported as 98.8 mm^3 and the T/C % ([1]; D21) is reported as 124%. For the same compound, the Median tumor volume ([1]; D26) was 217.5 mm^3, the T/C % ([1]; D26) was 114% and the Median tumor volume ([1]; D29) was 322.1 mm^3. It also gave a T/C % ([1]; D29) of 81%, a Median tumor volume ([1]; D33) of 498.2 mm^3 and a T/C % ([1]; D33) of 65%. For the same compound, the Median tumor volume ([1]; D36) was 711.0 mm^3, the T/C % ([1]; D36) was 62% and the Median tumor volume ([1]; D40) was 1046.3 mm^3. It also gave a T/C % ([1]; D40) of 66%, a Median tumor volume ([1]; D43) of 1598.0 mm^3 and a T/C % ([1]; D43) of 68%.
`N.N.[Cl][Pt][Cl]` [Cisplatin] was tested, and the IC50 (A129 cp80 cell line; A129 cp80, 48 hours) was 15.1 µM, the “RR (relative resistance)” value (A129 cp80 cell line; A129 cp80 versus A129) was 80 +/− 25 and the IC50 (A129) was 0.23 µM.
`Nc1ccn([C@@H]2O[C@H](CO)[C@@H](O)C2(F)F)c(=O)n1` [Gemcitabine, 2′,2′-difluorodeoxycytidine] showed an inhibition at 0.002 µM (UM-UC-3 cell line [2]; JM118 0 + Gemcitabine 0.0020 μM) of 2.6%, an inhibition at 0.0039 µM (UM-UC-3 cell line [2]; JM118 0 + Gemcitabine 0.0039 μM) of 8.7% and an inhibition at 0.0078 µM (UM-UC-3 cell line [2]; JM118 0 + Gemcitabine 0.0078 μM) of 23.4%. It also gave an inhibition at 0.0156 µM (UM-UC-3 cell line [2]; JM118 0 + Gemcitabine 0.0156 μM) of 43.9%, an inhibition at 0.0313 µM (UM-UC-3 cell line [2]; JM118 0 + Gemcitabine 0.0313 μM) of 57.8% and an inhibition at 0.0625 µM (UM-UC-3 cell line [2]; JM118 0 + Gemcitabine 0.0625 μM) of 63.3%. It also gave an inhibition at 0.0015625 µM (UM-UC-3 cell line [3]; JM118 0 + Gemcitabine 0.0015625 μM) of 0.2%, an inhibition at 0.003125 µM (UM-UC-3 cell line [3]; JM118 0 + Gemcitabine 0.003125 μM) of 1.2% and an inhibition at 0.00625 µM (UM-UC-3 cell line [3]; JM118 0 + Gemcitabine 0.00625 μM) of 8.3%. The inhibition at 0.0125 µM (UM-UC-3 cell line [3]; JM118 0 + Gemcitabine 0.0125 μM) was 41.7%, the inhibition at 0.025 µM (UM-UC-3 cell line [3]; JM118 0 + Gemcitabine 0.025 μM) was 87.8% and the inhibition at 0.05 µM (UM-UC-3 cell line [3]; JM118 0 + Gemcitabine 0.05 μM) was 103%.
In the case of `CC(=O)[O][Pt]([NH2])([Cl])([Cl])([NH]C1CCCCC1)[O]C(C)=O` [Satraplatin], the toxicity in mice ([1]; satraplatin 45 mg/kg) is reported as “toxic effects”.
